Results: patent US20160083400A1, “TRICYCLIC GUANIDINE DERIVATIVE” (Sunovion Pharmaceuticals Inc., priority 2014, published 2016)

Tests used:
Format in all cases: biochemical
[1] = target: PDE1B (Homo sapiens, UniProt Q01064); assay: In vitro HTRF PDE1 inhibition assay (PDE1B); details: 100 nM cyclic GMP, calmodulin, 45 minutes at 37° C.
Method: The Cisbio cGMP HTRF assay kit (Cat no: 62GM2PEC) was utilized. Cyclic GMP was diluted to 200 nM in HTRF assay buffer (1 mM CaCl2, 10 mM MgCl2, 10 mM Tris-HCl, 0.1% BSA, pH7.4). […] PDE (1A3, 1B or 1C) was diluted to 2× working concentration in HTRF assay buffer with 4 μg/ml Calmodulin, and 10 μl was added to initiate the reaction. The plate was then incubated for 45 minutes at 37° C. d2-Labelled cyclic GMP and anti-cGMP cryptate were diluted in 50 mM phosphate buffer, 0.8M KF, 1% Triton X100, 0.2% BSA, pH7.0. Following incubation 10 μl d2-cGMP, then 10 μl anti cGMP cryptate were added to each well and the plate was incubated for 45 minutes at rt. The plate was then read on Perkin Elmer Victor at 2 different FRET readings ex/emm 340 nm/665 nm and 340 nm/615 nm.

[2] = target: PDE1C (Homo sapiens, UniProt Q14123); assay: In vitro HTRF PDE1 inhibition assay (PDE1C)
Excerpt: (§1) An exemplary procedure for the in vitro Homogenous Time Resolved Fluorescence (HTRF) assay, which can be used to determine the inhibitory action of compounds of the invention toward PDE1 or its isoforms, follows.
(§2) The HTRF PDE1 assay utilized the HTRF technology, which is based on the competition between unlabeled cyclic nucleotide and cyclic nucleotide labeled with XL665 for the binding to cyclic nucleotide-specific antibody labeled with cryptate. The HTRF signal is thus inversely proportional to the concentration of cyclic nucleotide being measured. Since phosphodiesterases break down cyclic nucleotides the HTRF signal was used to determine PDE activity.
(§3) The Cisbio cGMP HTRF assay kit (Cat no: 62GM2PEC) was utilized. Cyclic GMP was diluted to 200 nM in HTRF assay buffer (1 mM CaCl2, 10 mM MgCl2, 10 mM Tris-HCl, 0.1% BSA, pH7.4). 10 μl of compound or DMSO was diluted in 200 nM cyclic GMP solution and added to wells of a 96 well white plate to give 100 nM cyclic GMP in 1% DMSO final concentration. PDE (1A3, 1B or 1C) was diluted to 2× working concentration in HTRF assay buffer with 4 μg/ml Calmodulin, and 10 μl was added to initiate the reaction. The plate was then incubated for 45 minutes at 37° C. d2-Labelled cyclic GMP and anti-cGMP cryptate were diluted in 50 mM phosphate buffer, 0.8M KF, 1% Triton X100, 0.2% BSA, pH7.0. Following incubation 10 μl d2-cGMP, then 10 μl anti cGMP cryptate were added to each well and the plate was incubated for 45 minutes at rt. The plate was then read on Perkin Elmer Victor at 2 different FRET readings ex/emm 340 nm/665 nm and 340 nm/615 nm.
(§4) Compounds having an IC50 of <1 μM, are denoted as +++. Compounds having an IC50 of 1-10 μM, are denoted as ++. Compounds having an IC50 of 10-100 μM, are denoted as +.

[3] = target: PDE1A (PDE 1A3) (Homo sapiens, UniProt P54750); assay: In vitro HTRF PDE1 inhibition assay (PDE1A); details: PDE1A (1A3); 100 nM cyclic GMP, calmodulin, 45 minutes at 37° C.
Chain of PDE1A (PDE 1A3) (P54750 whole entry): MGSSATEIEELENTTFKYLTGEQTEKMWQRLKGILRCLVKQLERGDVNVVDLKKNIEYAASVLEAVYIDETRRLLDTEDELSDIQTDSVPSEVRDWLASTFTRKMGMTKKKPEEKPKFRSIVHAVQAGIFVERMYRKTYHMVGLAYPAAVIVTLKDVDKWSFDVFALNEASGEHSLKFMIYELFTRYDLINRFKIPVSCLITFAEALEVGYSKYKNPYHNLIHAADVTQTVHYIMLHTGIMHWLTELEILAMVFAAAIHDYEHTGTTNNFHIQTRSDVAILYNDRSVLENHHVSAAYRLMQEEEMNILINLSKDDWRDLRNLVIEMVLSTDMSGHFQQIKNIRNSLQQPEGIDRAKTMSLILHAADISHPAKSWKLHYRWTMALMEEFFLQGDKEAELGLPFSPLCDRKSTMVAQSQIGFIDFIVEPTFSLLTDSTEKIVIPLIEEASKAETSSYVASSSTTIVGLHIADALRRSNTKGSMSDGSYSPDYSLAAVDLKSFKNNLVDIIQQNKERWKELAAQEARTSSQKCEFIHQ
Excerpt: as §1, §2, §3, §4

Chain of PDE1C (Q14123 whole entry, canonical isoform): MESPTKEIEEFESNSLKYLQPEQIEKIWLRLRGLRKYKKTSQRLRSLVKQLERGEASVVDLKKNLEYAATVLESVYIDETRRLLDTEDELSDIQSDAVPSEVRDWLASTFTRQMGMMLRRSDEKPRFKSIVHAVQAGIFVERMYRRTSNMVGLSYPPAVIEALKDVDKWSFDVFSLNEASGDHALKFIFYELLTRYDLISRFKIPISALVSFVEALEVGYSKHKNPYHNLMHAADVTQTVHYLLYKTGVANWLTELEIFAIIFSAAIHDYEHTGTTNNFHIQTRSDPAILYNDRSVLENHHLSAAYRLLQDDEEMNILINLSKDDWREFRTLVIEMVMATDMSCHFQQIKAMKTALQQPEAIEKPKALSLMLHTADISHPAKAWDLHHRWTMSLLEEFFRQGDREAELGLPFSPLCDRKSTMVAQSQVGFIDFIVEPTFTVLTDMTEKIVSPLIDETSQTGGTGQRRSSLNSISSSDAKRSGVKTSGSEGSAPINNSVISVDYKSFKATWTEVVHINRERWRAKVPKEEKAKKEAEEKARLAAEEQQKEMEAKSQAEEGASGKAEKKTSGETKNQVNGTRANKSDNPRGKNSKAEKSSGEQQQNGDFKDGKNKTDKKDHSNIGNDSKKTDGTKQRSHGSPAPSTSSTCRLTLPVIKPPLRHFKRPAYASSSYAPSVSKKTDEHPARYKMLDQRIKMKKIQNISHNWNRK
Chain of PDE1B (Q01064 whole entry): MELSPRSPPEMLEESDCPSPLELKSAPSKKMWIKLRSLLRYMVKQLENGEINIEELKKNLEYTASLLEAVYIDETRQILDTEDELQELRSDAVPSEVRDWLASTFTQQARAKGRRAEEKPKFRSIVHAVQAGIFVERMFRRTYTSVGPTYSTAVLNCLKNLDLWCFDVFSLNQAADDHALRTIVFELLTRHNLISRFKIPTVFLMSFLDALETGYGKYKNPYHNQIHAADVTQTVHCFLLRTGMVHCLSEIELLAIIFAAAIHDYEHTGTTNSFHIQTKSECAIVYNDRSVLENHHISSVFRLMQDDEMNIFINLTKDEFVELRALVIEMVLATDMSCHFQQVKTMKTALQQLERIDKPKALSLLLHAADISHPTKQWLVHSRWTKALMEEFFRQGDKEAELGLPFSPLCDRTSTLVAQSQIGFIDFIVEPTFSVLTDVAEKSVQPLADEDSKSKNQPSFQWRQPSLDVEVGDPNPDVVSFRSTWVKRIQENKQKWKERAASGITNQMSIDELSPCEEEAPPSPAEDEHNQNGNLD

Row | Compound | IC50 [1] [µM] | IC50 [2] [nM] | IC50 [3] [µM]
1 | COC1(c2ncc3c(=O)n4c(nn23)N[C@@H](c2ccc(Cl)cc2)CC4)CC1 [Example 239] | < 1 | 1000 to 10000 | < 1
2 | O=c1c2cnc(C3(C(F)(F)F)CC3)n2nc2n1CC[C@H](c1ccc(Cl)cc1)N2 [Example 238] | < 1 | 1000 to 10000 | < 1
3 | CC(C)c1ncc2c(=O)n3c(nn12)N[C@@H](c1ccc(Cl)cc1)CC3 [Example 18, (2R)-2-(4-Chlorophenyl)-9-isopropyl-1,2,3,4-tetrahydro-6H-imidazo[5,1-f]pyrimido[2,1-c][1,2,4]triazin-6-one] | < 1 | 1000 to 10000 | < 1
4 | CO[C@@H](C)c1ncc2c(=O)n3c(nn12)N[C@@H](c1ccc(Cl)cc1)CC3 [Example 259] | < 1 | < 1000 | < 1
5 | COc1ccc(C2CCn3c(nn4c(C5CCOCC5)ncc4c3=O)N2)cc1 (centres unmarked) [Example 57] | < 1 | < 1000 | < 1
6 | CC[C@H](C)c1ncc2c(=O)n3c(nn12)N[C@@H](c1ccc(Cl)cc1)CC3 [Example 227] | < 1 | < 1000 | < 1
7 | O=c1c2cnc(C3CCC3)n2nc2n1CC[C@H](c1ccc(Cl)cc1)N2 [Example 65] | < 1 | < 1000 | < 1
8 | O=c1c2cnc(C3CCOCC3)n2nc2n1CCC(Cc1ccc(Cl)cc1)N2 (centres unmarked) [Example 59] | < 1 | – | –
9 | O=c1c2noc(C3CCOCC3)c2nc2n1CCC(c1cccc(Cl)c1)N2 (centres unmarked) [Example 159] | 10 to 100 | – | –
10 | Cc1ccc(C2CCn3c(nc4c(cnn4C(C)C)c3=O)N2)cn1 (centres unmarked) [Example 12] | 1 to 10 | – | –
11 | O=c1c2cnc(C3CCOCC3)n2nc2n1CC[C@H](c1ccc(Cl)cc1F)N2 [Example 125] | < 1 | – | –
12 | O=c1c2cnc(C3CCCC3)n2nc2n1CC[C@H](c1cncc(Cl)c1)N2 [Example 135] | < 1 | – | –
13 | CC(C)n1ncc2c(=O)n3c(nc21)NC(c1ccc(C#N)cc1)C3 (centres unmarked) [compound 87] | < 1 | – | –
14 | O=c1c2cnc(C3CCCC3)n2nc2n1CC[C@@H](c1ccc(Cl)cc1)N2 [Example 62] | < 1 | – | –
15 | Cc1ncc(CC2CCn3c(nc4c(cnn4C4CCCC4)c3=O)N2)cn1 (centres unmarked) [Example 71] | 1 to 10 | – | –
16 | O=c1c2cnn(C3CCOCC3)c2nc2n1C[C@@H](c1ccc(Cl)cc1)N2 [Example 147] | 1 to 10 | – | –
17 | COc1ccc(C2CCn3c(nn4c(C(C)C)ncc4c3=O)N2)cc1 (centres unmarked) [Example 54] | < 1 | – | –
18 | O=c1c2cnc(C(F)(F)F)n2nc2n1CC[C@H](c1ccc(Cl)cc1)N2 [Example 246] | 1 to 10 | – | –
19 | CC(C)c1ncc2c(=O)n3c(nn12)NC(c1ccc(Cl)nc1)C3 (centres unmarked) [Example 181, 2-(6-Chloro-3-pyridinyl)-8-isopropyl-2,10-dihydro-3H,5H-diimidazo[2,1-c:5′,1′-f][1,2,4]triazin-5-one] | < 1 | – | –
20 | CCCc1ncc2c(=O)n3c(nn12)N[C@@H](c1ccc(Cl)cc1)CC3 [Example 167] | < 1 | – | –

Row | Compound | IC50 [1] [µM] | IC50 [2] [nM] | IC50 [3] [µM]
21 | O=c1c2cnc(C3CCOCC3)n2nc2n1CCC(c1cccc(Cl)c1)N2 (centres unmarked) [Example 56] | < 1 | – | –
22 | O=c1c2cnc(C3CC3)n2nc2n1CCC(c1ccc(Cl)cc1)N2 (centres unmarked) [Example 67] | < 1 | – | –
23 | CO[C@H]1CC[C@@H](c2ncc3c(=O)n4c(nn32)N[C@@H](c2ccc(Cl)cc2)CC4)CC1 [Example 236] | 1 to 10 | – | –
24 | O=c1c2cnc(C3CCOCC3)n2nc2n1CC(c1ccc(Cl)nc1)N2 (centres unmarked) [Example 183] | < 1 | – | –
25 | O=c1c2noc(C3CCOCC3)c2nc2n1CC[C@H](c1ccc(Cl)cc1)N2 [Example 155] | 1 to 10 | – | –
26 | CC(C)c1ncc2c(=O)n3c(nn12)NC(c1ccc(OCF)cc1)C3 (centres unmarked) [Example 262, 2-[4-(Fluoromethoxy)phenyl]-8-isopropyl-2,10-dihydro-3H,5H-diimidazo[2,1-c:5′,1′-f][1,2,4]triazin-5-one] | < 1 | – | –
27 | Cc1ncc(C2CCn3c(nc4c(cnn4C(C)C)c3=O)N2)cn1 (centres unmarked) [Example 25] | 1 to 10 | – | –
28 | COC(C)(C)c1ncc2c(=O)n3c(nn12)N[C@@H](c1ccc(Cl)cc1)CC3 [Example 240] | < 1 | – | –
29 | O=c1c2cnc(C3CCOCC3)n2nc2n1CC[C@H](c1cccc(Cl)c1)N2 [Example 127] | < 1 | – | –
30 | COc1ccc(CC2CCn3c(nc4c(cnn4C4CCOCC4)c3=O)N2)cc1 (centres unmarked) [Example 16] | < 1 | – | –
31 | O=c1c2cnn(C3CCOCC3)c2nc2n1CC(c1ccc(F)cc1)N2 (centres unmarked) [Example 76] | < 1 | – | –
32 | CC(C)c1ncc2c(=O)n3c(nn12)NC(C1CCCCC1)CC3 (centres unmarked) [Example 53] | < 1 | – | –
33 | CC(C)n1ncc2c(=O)n3c(nc21)NC(c1ccc(C#N)cc1)CC3 (centres unmarked) [compound 88] | < 1 | – | –
34 | COc1ccc(CC2CCn3c(nn4c(C5CCOCC5)ncc4c3=O)N2)cc1 (centres unmarked) [Example 58] | < 1 | – | –
35 | O=c1c2cnc(C3CCCC3)n2nc2n1CCC(c1ccc(Cl)cc1)N2 (centres unmarked) [Example 60] | < 1 | – | –
36 | O=c1c2cnn(C3CCCC3)c2nc2n1CC[C@@H](c1ccc(Cl)cc1)N2 [Example 41] | 1 to 10 | – | –
37 | CC(C)n1ncc2c(=O)n3c(nc21)NC(c1ccccc1)CC3 (centres unmarked) [Example 32] | < 1 | – | –
38 | COc1ccc([C@H]2Cn3c(nc4c(cnn4C(C)C)c3=O)N2)cc1 [Example 146] | < 1 | – | –
39 | O=c1c2noc(C3CCCC3)c2nc2n1CC[C@H](c1ccc(Cl)cc1)N2 [Example 153] | 10 to 100 | – | –
40 | O=c1c2cnn(C3CCOCC3)c2nc2n1CCC(c1ccc(Cl)cc1)N2 (centres unmarked) [Example 43] | < 1 | – | –

Row | Compound | IC50 [1] [µM] | IC50 [2] [nM] | IC50 [3] [µM]
41 | Cc1ncc(CC2CCn3c(nc4c(cnn4C(C)C)c3=O)N2)cn1 (centres unmarked) [Example 72] | 1 to 10 | – | –
42 | CC(C)c1ncc2c(=O)n3c(nn12)N[C@@H](c1ccc(O)cc1)C3 [Example 261, (2S)-2-(4-Hydroxyphenyl)-8-isopropyl-2,10-dihydro-3H,5H-diimidazo[2,1-c:5′,1′-f][1,2,4]triazin-5-one] | < 1 | – | –
43 | O=c1c2cnc(CC3CC3)n2nc2n1CC[C@H](c1ccc(Cl)cc1)N2 [Example 247] | < 1 | – | –
44 | O=c1c2cnc(C3CCC3)n2nc2n1CCC(Cc1ccc(Cl)cc1)N2 (centres unmarked) [Example 66] | < 1 | – | –
45 | O=C1c2cnc([C@@H]3CCOC3)n2NC2=N[C@@H](c3ccc(Cl)cc3)CN12 [Example 185, (2S)-2-(4-Chlorophenyl)-8-[(3S)-tetrahydro-3-furanyl]-2,10-dihydro-3H,5H-diimidazo[2,1-c:5′,1′-f][1,2,4]triazin-5-one] | < 1 | – | –
46 | CC(C)c1onc2c(=O)n3c(nc12)N[C@@H](c1ccc(Cl)cc1)CC3 [Example 152, (6R)-6-(4-Chlorophenyl)-3-isopropyl-4,6,7,8-tetrahydro-10H-[1,2]oxazolo[4,3-d]pyrimido[1,2-a]pyrimidin-10-one] | 1 to 10 | – | –
47 | N#Cc1ccc(C2CCn3c(nn4c(C5CCOCC5)ncc4c3=O)N2)cc1 (centres unmarked) [Example 93] | < 1 | – | –
48 | O=c1c2cnc(C3CCOCC3)n2nc2n1CC(c1ccc(F)nc1)N2 (centres unmarked) [Example 184] | 1 to 10 | – | –
49 | COc1ccc(CC2CCn3c(nc4c(cnn4C(C)C)c3=O)N2)cc1 (centres unmarked) [Example 13] | < 1 | – | –
50 | CC(C)Cc1ncc2c(=O)n3c(nn12)N[C@@H](c1ccc(Cl)cc1)CC3 [Example 166] | < 1 | – | –
51 | CC(C)n1ncc2c(=O)n3c(nc21)NC(c1cccc(Cl)c1)CC3 (centres unmarked) [Example 30] | < 1 | – | –
52 | COc1cccc(C2CCn3c(nc4c(cnn4C4CCCC4)c3=O)N2)c1 (centres unmarked) [Example 5] | 10 to 100 | – | –
53 | O=c1c2cnc(C3CCOCC3)n2nc2n1CC[C@@H](c1ccc(Cl)cc1F)N2 [Example 124] | 1 to 10 | – | –
54 | CC(C)(C)n1ncc2c(=O)n3c(nc21)NC(c1ccc(Cl)cc1)CC3 (centres unmarked) [Example 45] | 10 to 100 | – | –
55 | O=c1c2cnc(C3CCNCC3)n2nc2n1CCC(c1ccc(Cl)cc1)N2 (centres unmarked) [Example 253, 2-(4-Chlorophenyl)-9-(4-piperidinyl)-1,2,3,4-tetrahydro-6H-imidazo[5,1-f]pyrimido[2,1-c][1,2,4]triazin-6-one] | 1 to 10 | – | –
56 | O=c1c2cnc(C3CC=CCC3)n2nc2n1CC[C@H](c1ccc(Cl)cc1)N2 (some centres unmarked) [Example 243] | < 1 | – | –
57 | COc1ccc([C@H]2CCn3c(nn4c(C(C)C)ncc4c3=O)N2)cc1 [Example 85] | < 1 | – | –
58 | CC(C)n1ncc2c(=O)n3c(nc21)N[C@H](c1ccc(Cl)cc1)CC3 [Example 28] | 1 to 10 | – | –
59 | Cc1cccc([C@H]2CCn3c(nn4c(C5CCOCC5)ncc4c3=O)N2)c1 [Example 264, (2R)-2-(3-Methylphenyl)-9-(tetrahydro-2H-pyran-4-yl)-1,2,3,4-tetrahydro-6H-imidazo[5,1-f]pyrimido[2,1-c][1,2,4]triazin-6-one] | < 1 | – | –
60 | COCc1ncc2c(=O)n3c(nn12)N[C@@H](c1ccc(Cl)cc1)CC3 [Example 244] | < 1 | – | –
